{"source": "ChEMBL document CHEMBL5058541", "about": "“EUbOPEN Chemogenomics Library 2 (NanoBRET)” (2022)", "key": {"Peregrin (Homo sapiens) [1]": {"target": "T1, Peregrin (Homo sapiens) (UniProt P55201)", "T1 sequence (whole entry)": "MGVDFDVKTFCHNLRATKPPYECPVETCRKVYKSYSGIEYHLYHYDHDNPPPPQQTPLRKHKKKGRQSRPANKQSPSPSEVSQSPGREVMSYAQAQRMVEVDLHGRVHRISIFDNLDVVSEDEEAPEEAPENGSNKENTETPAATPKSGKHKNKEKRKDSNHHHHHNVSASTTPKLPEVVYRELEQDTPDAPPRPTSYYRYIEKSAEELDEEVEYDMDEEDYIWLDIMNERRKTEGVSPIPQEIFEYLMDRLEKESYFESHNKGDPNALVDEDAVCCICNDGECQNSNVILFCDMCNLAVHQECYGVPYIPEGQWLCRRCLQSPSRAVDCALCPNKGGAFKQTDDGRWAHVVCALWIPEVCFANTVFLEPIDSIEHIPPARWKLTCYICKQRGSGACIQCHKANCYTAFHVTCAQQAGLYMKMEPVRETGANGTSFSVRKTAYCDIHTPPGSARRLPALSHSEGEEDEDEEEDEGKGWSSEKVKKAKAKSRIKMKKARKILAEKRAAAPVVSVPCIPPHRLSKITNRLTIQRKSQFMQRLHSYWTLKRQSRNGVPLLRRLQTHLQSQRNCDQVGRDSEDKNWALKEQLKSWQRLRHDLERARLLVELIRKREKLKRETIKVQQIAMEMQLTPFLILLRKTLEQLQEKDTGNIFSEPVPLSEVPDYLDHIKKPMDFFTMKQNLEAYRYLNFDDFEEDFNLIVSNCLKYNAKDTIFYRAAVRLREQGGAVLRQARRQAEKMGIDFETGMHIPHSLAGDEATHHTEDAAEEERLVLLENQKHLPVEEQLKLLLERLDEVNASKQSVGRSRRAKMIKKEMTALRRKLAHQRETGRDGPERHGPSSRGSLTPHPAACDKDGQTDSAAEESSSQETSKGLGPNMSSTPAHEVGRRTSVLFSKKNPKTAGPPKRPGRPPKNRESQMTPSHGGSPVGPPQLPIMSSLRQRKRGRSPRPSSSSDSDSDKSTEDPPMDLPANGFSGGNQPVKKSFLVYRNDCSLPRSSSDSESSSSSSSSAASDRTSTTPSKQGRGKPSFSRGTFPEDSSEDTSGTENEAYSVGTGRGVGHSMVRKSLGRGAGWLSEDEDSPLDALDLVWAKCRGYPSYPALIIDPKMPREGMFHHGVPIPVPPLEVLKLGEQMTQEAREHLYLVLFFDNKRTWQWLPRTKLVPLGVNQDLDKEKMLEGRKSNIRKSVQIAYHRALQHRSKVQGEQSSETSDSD", "conditions": "Compound concentration 20.0 uM, Protein concentration 2.0 uM, Result type QC Liability"}, "[2]": {"target": "SRSF protein kinase 1 (Homo sapiens) (UniProt Q96SB4)", "sequence (Q96SB4 whole entry)": "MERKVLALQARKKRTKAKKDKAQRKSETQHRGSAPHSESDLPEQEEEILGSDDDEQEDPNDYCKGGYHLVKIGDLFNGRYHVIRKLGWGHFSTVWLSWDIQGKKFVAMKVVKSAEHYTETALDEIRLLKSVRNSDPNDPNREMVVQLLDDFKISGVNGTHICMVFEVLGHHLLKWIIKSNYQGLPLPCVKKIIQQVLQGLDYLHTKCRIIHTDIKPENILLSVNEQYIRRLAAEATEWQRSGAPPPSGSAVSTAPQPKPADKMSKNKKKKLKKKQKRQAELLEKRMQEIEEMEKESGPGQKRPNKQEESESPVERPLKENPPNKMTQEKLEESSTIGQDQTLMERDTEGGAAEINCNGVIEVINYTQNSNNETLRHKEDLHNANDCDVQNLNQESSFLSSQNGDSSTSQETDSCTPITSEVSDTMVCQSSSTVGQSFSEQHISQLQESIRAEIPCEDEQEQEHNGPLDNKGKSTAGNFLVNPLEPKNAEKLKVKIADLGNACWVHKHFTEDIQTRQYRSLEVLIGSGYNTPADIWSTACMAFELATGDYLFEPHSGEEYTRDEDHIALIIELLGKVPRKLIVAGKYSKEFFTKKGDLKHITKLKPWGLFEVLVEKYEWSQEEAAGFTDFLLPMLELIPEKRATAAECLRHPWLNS", "conditions": "HEK-293T, NanoBRET Ttracer MW375", "description": "Cellular target engagement assay with: SRPK1"}, "[3]": {"target": "SRSF protein kinase 2 (Homo sapiens) (UniProt P78362)", "sequence (P78362 whole entry, looked up)": "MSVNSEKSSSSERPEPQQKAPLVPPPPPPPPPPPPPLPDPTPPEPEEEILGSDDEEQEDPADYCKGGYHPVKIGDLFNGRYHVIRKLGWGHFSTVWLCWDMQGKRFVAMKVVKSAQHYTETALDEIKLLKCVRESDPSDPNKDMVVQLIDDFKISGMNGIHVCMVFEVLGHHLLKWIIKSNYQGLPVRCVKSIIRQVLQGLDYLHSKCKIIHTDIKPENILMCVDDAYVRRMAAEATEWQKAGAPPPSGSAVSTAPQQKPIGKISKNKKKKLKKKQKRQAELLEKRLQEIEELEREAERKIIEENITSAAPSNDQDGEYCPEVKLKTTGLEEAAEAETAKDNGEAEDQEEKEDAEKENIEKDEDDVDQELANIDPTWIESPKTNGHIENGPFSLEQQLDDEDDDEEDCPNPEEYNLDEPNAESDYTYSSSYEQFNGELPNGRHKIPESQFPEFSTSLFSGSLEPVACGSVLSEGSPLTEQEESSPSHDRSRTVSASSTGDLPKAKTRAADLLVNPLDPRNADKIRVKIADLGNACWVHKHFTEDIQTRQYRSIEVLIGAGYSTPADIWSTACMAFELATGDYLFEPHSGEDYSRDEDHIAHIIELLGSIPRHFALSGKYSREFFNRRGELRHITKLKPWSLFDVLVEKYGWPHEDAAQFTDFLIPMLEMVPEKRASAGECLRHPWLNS", "conditions": "HEK-293T, NanoBRET Ttracer MW375", "description": "Cellular target engagement assay with: SRPK2"}, "[4]": {"target": "Fibroblast growth factor receptor 3 (Homo sapiens) (UniProt P22607)", "sequence (P22607 23-806 limits assumed)": "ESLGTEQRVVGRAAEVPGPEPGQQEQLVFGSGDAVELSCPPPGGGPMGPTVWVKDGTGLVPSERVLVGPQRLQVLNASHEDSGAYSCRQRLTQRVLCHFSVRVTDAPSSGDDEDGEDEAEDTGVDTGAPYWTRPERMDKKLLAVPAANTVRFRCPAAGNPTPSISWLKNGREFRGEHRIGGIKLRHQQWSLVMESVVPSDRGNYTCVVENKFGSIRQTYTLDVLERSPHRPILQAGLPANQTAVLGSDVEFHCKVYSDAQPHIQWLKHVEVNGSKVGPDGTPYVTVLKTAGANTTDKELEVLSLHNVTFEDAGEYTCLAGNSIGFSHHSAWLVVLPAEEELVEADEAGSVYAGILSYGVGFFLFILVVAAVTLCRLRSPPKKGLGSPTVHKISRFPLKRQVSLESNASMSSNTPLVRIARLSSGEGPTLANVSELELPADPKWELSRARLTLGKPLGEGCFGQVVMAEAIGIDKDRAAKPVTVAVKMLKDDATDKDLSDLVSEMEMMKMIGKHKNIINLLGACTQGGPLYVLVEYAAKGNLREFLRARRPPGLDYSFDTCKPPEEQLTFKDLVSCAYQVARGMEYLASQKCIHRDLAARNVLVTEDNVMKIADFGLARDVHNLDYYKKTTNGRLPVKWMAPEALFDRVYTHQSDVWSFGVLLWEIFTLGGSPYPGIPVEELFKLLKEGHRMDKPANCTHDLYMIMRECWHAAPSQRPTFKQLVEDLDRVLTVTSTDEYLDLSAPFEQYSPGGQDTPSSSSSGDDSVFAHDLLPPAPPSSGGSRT", "conditions": "Compound concentration 20.0 uM, Protein concentration 2.0 uM, Result type QC Liability", "description": "Thermal Shift Assay. Domain: start/stop: P449-E759"}, "[5]": {"target": "T2, Peripheral plasma membrane protein CASK (Homo sapiens) (UniProt O14936)", "T2 sequence (whole entry)": "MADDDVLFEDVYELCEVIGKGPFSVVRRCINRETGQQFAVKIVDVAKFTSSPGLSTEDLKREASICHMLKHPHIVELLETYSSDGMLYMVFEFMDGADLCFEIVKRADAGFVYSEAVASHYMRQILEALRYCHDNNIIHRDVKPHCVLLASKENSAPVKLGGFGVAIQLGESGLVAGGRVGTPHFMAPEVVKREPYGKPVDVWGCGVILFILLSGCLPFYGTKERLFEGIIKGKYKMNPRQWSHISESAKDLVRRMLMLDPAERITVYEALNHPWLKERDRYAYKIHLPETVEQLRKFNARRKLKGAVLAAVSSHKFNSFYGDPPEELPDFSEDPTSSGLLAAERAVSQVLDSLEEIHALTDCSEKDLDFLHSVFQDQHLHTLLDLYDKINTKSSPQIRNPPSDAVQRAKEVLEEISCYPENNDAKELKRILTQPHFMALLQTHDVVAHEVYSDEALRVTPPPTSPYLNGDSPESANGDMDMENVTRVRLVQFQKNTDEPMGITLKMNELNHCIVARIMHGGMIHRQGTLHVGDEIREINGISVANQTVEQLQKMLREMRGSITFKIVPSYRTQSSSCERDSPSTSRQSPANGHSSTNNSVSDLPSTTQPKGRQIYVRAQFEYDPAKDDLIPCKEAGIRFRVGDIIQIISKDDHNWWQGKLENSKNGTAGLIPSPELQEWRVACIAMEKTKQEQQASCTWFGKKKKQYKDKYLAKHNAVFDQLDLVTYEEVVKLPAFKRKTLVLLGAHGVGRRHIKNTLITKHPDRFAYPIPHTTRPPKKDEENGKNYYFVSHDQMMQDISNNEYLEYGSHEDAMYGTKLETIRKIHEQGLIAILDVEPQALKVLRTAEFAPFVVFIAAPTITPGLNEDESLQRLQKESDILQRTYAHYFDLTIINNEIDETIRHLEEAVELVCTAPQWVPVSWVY", "assay": "(§1) Cellular target engagement assay with: CASK", "set-up": "cell line HEK293T", "conditions": "HEK-293T, NanoBRET Ttracer Tracer K5"}, "[6]": {"target": "T3, Peripheral plasma membrane protein CASK (Homo sapiens, UniProt O14936)", "T3 sequence (O14936 whole entry)": "T2 sequence (whole entry)", "assay": "as §1", "set-up": "species or system HEK-293T; cell line HEK293T"}, "Peregrin (Homo sapiens) [7]": {"target": "T1, Peregrin (Homo sapiens)", "conditions": "Compound concentration 20.0 uM, Protein concentration 2.0 uM, Result type QC Liability", "remark": "listed apart in the source"}, "[8]": {"target": "Epithelial discoidin domain-containing receptor 1 (Homo sapiens) (UniProt Q08345)", "sequence (Q08345 whole entry, the tested form may be a part)": "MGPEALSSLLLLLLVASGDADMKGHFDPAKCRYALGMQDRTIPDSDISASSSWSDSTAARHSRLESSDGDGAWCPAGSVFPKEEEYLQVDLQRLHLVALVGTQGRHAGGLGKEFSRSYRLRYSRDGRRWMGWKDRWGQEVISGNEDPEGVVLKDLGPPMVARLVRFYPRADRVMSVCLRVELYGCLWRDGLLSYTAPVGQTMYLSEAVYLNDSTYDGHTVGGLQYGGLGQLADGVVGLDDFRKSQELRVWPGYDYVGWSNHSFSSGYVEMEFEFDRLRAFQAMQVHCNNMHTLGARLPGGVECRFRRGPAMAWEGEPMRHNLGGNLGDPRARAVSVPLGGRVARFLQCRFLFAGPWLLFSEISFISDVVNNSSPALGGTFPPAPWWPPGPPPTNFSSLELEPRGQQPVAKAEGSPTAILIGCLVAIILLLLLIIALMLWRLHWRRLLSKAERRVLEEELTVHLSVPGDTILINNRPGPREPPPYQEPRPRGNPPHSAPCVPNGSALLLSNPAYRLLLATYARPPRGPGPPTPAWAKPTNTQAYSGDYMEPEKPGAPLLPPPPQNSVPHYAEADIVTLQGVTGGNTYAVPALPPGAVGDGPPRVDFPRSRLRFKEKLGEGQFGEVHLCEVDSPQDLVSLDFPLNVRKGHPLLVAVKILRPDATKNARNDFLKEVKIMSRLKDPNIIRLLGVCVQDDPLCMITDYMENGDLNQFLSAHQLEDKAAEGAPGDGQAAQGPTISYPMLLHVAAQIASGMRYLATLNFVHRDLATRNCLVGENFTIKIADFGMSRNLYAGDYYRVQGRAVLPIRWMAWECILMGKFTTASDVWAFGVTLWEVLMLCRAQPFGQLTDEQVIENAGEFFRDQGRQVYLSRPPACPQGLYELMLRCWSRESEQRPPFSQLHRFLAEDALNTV", "assay": "Cellular target engagement assay with: DDR1", "set-up": "cell line HEK293T", "conditions": "HEK-293T, NanoBRET Ttracer Tracer K4"}, "[9]": {"target": "T4, Discoidin domain-containing receptor 2 (Homo sapiens) (UniProt Q16832)", "T4 sequence (whole entry)": "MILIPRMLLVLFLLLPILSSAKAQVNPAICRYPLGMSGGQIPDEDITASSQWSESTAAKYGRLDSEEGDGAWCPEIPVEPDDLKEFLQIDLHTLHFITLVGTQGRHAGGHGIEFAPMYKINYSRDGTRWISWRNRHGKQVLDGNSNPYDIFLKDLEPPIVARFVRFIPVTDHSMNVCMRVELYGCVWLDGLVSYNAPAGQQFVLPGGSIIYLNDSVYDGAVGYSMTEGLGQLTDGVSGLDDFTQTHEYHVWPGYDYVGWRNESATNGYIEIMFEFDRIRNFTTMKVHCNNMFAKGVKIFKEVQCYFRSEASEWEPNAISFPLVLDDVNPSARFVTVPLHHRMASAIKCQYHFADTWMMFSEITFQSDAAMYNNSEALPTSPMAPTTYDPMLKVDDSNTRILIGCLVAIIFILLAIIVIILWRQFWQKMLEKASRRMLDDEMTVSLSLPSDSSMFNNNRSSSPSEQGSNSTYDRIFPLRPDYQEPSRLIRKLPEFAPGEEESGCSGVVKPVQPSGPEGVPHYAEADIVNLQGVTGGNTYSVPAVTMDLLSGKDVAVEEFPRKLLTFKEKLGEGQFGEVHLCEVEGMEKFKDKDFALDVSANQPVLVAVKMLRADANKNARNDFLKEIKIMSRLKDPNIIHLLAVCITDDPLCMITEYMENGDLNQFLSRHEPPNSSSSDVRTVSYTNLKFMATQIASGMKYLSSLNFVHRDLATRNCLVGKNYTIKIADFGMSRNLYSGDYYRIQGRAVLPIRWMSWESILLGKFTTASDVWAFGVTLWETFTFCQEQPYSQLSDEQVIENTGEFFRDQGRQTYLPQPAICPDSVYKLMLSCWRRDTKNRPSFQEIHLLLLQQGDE", "assay": "Cellular target engagement assay with: DDR2", "set-up": "cell line HEK293T", "conditions": "HEK-293T, NanoBRET Ttracer Tracer K4"}, "[10]": {"target": "Mitogen-activated protein kinase 11 (Homo sapiens) (UniProt Q15759)", "sequence (Q15759 whole entry)": "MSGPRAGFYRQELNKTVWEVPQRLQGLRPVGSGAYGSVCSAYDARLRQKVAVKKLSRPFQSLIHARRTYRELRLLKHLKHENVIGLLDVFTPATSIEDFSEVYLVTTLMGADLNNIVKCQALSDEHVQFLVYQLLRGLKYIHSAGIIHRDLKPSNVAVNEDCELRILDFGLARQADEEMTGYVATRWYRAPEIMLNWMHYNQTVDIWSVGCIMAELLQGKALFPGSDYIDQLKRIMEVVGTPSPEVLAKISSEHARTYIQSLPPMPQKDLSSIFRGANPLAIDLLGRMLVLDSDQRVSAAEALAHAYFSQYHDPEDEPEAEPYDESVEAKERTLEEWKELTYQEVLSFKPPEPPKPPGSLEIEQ", "assay": "Cellular target engagement assay with: MAPK11", "set-up": "cell line HEK293T", "conditions": "HEK-293T, NanoBRET Ttracer Tracer K10"}, "[11]": {"target": "Mitogen-activated protein kinase 14 (Homo sapiens) (UniProt Q16539)", "sequence (Q16539 whole entry)": "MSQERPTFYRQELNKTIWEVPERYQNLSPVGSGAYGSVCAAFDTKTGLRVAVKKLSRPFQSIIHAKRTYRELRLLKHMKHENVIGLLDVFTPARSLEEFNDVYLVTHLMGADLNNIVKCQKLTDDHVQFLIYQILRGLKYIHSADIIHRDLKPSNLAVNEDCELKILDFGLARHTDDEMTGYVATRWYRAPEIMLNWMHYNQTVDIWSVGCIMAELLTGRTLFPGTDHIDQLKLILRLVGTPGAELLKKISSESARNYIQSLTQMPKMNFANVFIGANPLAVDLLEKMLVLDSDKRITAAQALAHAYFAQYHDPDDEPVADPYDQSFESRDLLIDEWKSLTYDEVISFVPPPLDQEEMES", "assay": "Cellular target engagement assay with: MAPK14", "set-up": "cell line HEK293T", "conditions": "HEK-293T, NanoBRET Ttracer Tracer K10"}}, "data": [{"compound": "CN(c1ncccc1CNc1ccnc(-c2nc3c(F)c(Cl)ccc3[nH]2)n1)S(C)(=O)=O", "values": [{"measurement": "ΔTm", "setting": "Peregrin (Homo sapiens) [1]", "value": -1.19, "unit": "c"}, {"measurement": "LogIC50", "setting": "[2]", "value": -7}, {"measurement": "LogIC50", "setting": "[3]", "value": -7}, {"measurement": "ΔTm", "setting": "[4]", "value": 0.31, "unit": "c"}]}, {"compound": "O=C(NCCCN1CCOC1=O)c1cnc(NCc2cc(Br)ccc2Br)nc1NC1CCCC1", "values": [{"measurement": "LogIC50", "setting": "[5]", "value": -7}, {"measurement": "IC50", "setting": "[6]", "value": 80, "unit": "nM"}, {"measurement": "ΔTm", "setting": "Peregrin (Homo sapiens) [7]", "value": 0, "unit": "c"}, {"measurement": "ΔTm", "setting": "[4]", "value": 0, "unit": "c"}]}, {"compound": "CS(=O)(=O)N1CCCC(NC(=O)[C@H](CCC2CCCCC2)NC(=O)c2ccc(CNC(=O)c3cnc4ccccn34)cc2)C1", "note": "(some centres undefined)", "values": [{"measurement": "LogIC50", "setting": "[8]", "value": -8}, {"measurement": "LogIC50", "setting": "[9]", "value": -8}, {"measurement": "LogIC50", "setting": "[10]", "value": -7}, {"measurement": "LogIC50", "setting": "[11]", "value": -7}, {"measurement": "ΔTm", "setting": "Peregrin (Homo sapiens) [7]", "value": -0.163, "unit": "c"}, {"measurement": "ΔTm", "setting": "[4]", "value": -0.0946, "unit": "c"}]}]}
